Results as given in US20160129155A1, “MUSCULOSKELETAL TISSUE FABRICATION” (University of Pittsburgh - Of the Commonwealth System of …, priority 2014, published 2016).

Tests used:
[1] = system: engineered osteochondral constructs; experiment: IL-1β treatment of engineered osteochondral constructs, real time PCR; format: cell-based, human; conditions: 10 ng/ml, 7 days
Procedure: Real time PCR. Chondral and osseous constructs were collected separately. To avoid the potential contamination, the bonded margin of each construct was cut away using a razor blade. Total RNA was extracted using Trizol (Invitrogen) following the standard protocol and purified with the RNeasy Plus mini kit (Qiagen, Hilden, Germany). SuperScript III kit (Invitrogen) was utilized with random hexamer primers to complete the reverse transcription. Real-time RT-PCR was performed using the StepOnePlus thermocycler (Applied Biosystems, Foster City, Calif.) and SYBR Green Reaction Mix (Applied Biosystems). Sox 9, Aggrecan (ACN) and collagen type II (COL2A1), RunX2, Osteocalcin (OCN), Bone sialoprotein (BSP II) expression were analyzed. Monolayers of hBMSCs cultured in GM on 2D tissue culture plastic were used as negative controls. Transcript level of 18S rRNA was used as endogenous control: […], Gene expression folder changes were calculated using the Comparative CT (ΔΔCT) method.
(§1) IL-1β treatment in engineered micro-osteochondral constructs. After 4 weeks of differentiation, engineered the osteochondral constructs were treated with IL-1β […], R&D) on the chondral or osseous sides only to investigate the cell/neo-tissue response to pro-inflammatory cytokines and possible communication through the osteochondral construct. The media used in this test were CM without TGF-β3 (chondral) and OM without BMP-2 (osseous) both supplemented with 5 ng/ml There were experimental groups: (1) CM/GM, (2) CM+IL1-1β/GM, (3) CM/GM+IL1-1β. The treatment lasted 7 days, with effluent medium collected and frozen at 1, 7 days for ELISA. After 7 days, the osteochondral constructs were bisected into the chondral and osseous halves and processed for gene expression analysis as described before. In addition to tissue specific gene expression, matrix metalloproteinase 1, 3, 13 were also analyzed.
(§2) IL1β treatment on engineered osteochondral tissue. As described above, the microtissue bioreactor presented here, with its two separate medium flow systems and biphasic construct compartments, has the capability for targeted treatment of one (or both) tissue construct(s) with soluble factors. Osseous and chondral components were separately treated with the pro-inflammatory cytokine IL-1β (10 ng/ml) for 7 days (control conditions consisted of untreated osteochondral constructs), and the responses of each of the two components were separately analyzed. Media samples were collected from chondral and osseous components streams at day 1 and 7, and, after day 7, the osteochondral constructs were separated into osseous and chondral components, and each was separately analyzed for gene expression of catabolic genes (MMP-1, MMP-3, MMP-13) and either cartilage markers (Sox9, Col2, aggrecan) (FIG. 20) or bone markers (RUNX2, osteocalcin, BSPII) (FIG. 21). Media samples from the chondral and osseous components stream collected at days 1 and 7 were analyzed via MMP-1, MMP-3, and MMP-13 ELISAs (FIG. 22).

[2] = system: engineered osteochondral constructs; experiment: IL-1β treatment of engineered osteochondral constructs, MMP ELISA of medium; format: cell-based, human
Procedure: as §1
Enzyme-linked immunosorbent assay (ELISA). Media was collected separately from chondral and osseous constructs, cleared of cell debris via centrifugation (1000×g), and analyzed via IL-1β (Abcam, Cambridge, Mass.), MMP-1 (R&D), MMP-3 (Abcam, Cambridge, Mass.), and MMP-13 (Abcam) ELISAs according to the manufacturers' instructions.
as §2

hASCs [3] = experiment: Chondrogenesis of hASCs in VL-PSL constructs (RT-PCR, hydroxyproline, histology, IHC); format: cell-based, human
Procedure: (§3) The fabricated constructs were detached from the platform and washed 3 times to remove uncured polymer solution. The constructs were cultured in control medium (CM, DMEM with 1% L-alanyl-L-glutamine, 55 μM sodium pyruvate, 1× antibiotic-antimycotic, and 1% Insulin-Transferrin-Selenium (ITS)) or chondrogenic medium (CGM, CM supplemented with 10 ng/ml transforming growth factor-β3 (TGF-β3), 100 nM dexamethasone, 50 μM L-ascorbic acid 2-phosphate, and 23 μM L-proline) up to 28 days, which were designated as Control or TGF-β3 group, respectively.
Total RNA of the cells within the constructs was isolated using TRIZOL reagent and purified. Reverse transcription reactions were performed. Real-time PCR was performed with a thermocycler. All sample values were normalized to 18S rRNA using the 2^−ΔΔCt method.
Total collagen content deposited within the constructs was determined by measuring hydroxylproline levels. The constructs (5 mm diameter and 2 mm thickness) were homogenized in water by grinding and hydrolyzed using the same volume of 12N HCl at 120° C. for 3 hours. Hydroxyproline content in constructs was quantitated using a Hydroxyproline Colorimetric Assay Kit.
After 28 days culture, constructs were removed from the incubator, washed twice, and fixed in buffered paraformaldehyde (4%) for 1 day at room temperature. After washed with PBS for 3 times, they were then cryosectioned using a cryostat at 8 μm thickness. For assessment of glycosaminoglycan deposition, the slides were stained with either Alcian Blue or Safranin-O/Fast Green following standard protocols.
Enzymatic antigen retrieval was performed using chondroitinase/hyaluronidase (1 mg/ml and 5 mg/ml) at 37° C. for 30 min, and was suppressed with 1% horse serum in PBS for 45 min. After blocking endogenous peroxidase (3% H2O2 in methanol for 10 min) and nonspecific binding (1% horse serum), slices were incubated with primary antibodies against collage type II overnight at 4° C. After washing, biotinylated secondary antibodies were applied for 30 min. Staining was developed by treating samples with horseradish peroxidase (HRP)-conjugated streptavidin/NovaRED™ peroxidase substrate.

hASCs [4] = format: cell-based; conditions: 28 days
Procedure: P3 hASCs were pelleted by centrifugation and the supernatant was completely removed. The polymer solution prepared above was used to re-suspend hASCs at 4×10^6cells/ml, and then the cell-polymer solution was immediately poured into the basement plate of the PSL device for printing with different 3D models as the template.
as §3
At various time points post-fabrication, cell viability was assessed with the Live/Dead Viability/Cytotoxicity kit as examined by epifluorescence microscopy. The percentage of live cells was calculated as the number of green-staining cells divided by the total number of cells (green & red staining cells).

[5] = IL-1β treatment of chondral construct
[6] = IL-1β treatment of osseous component
[7] = day 28, TGF-β3 group versus control group

Substance | MMPs production in the osseous construct [1, 5] | osseous construct expression of osteocalcin and BSPII [1, 5] | chondral construct expression of Sox9, Col2 and aggrecan ([1]; IL-1β treatment of chondral constructs) | chondral construct expression of MMP-1, MMP-3 and MMP-13 [1, 6] | chondral construct expression of Sox9, Col2 and aggrecan ([1]; IL-1β treatment of osseous constructs) | osseous construct MMP secretion response ([2]; IL-1β treatment of chondral component, days 1 and 7) | chondral MMP-1, MMP-3 and MMP-13 secretion [2, 6] | chondral MMP-1 response time [2, 6] | chondral MMP-13 response time [2, 6] | Alcian Blue and Safranin O staining (GAG) (hASCs [3]; day 28, TGF-β3 group) | IHC for collagen type II (hASCs [3]; day 28, TGF-β3 group) | hydroxyproline level (hASCs [3]; day 28, TGF-β3 group) | Runx2 expression (hASCs [3]; [7]) | expression of Sox 9, aggrecan and collagen II (hASCs [3]; [7]) | cell viability (hASCs [4]; chondrogenic medium supplemented with TGF-β3) | cell proliferation by MTS assay (hASCs [4]; chondrogenic medium with TGF-β3)
interleukin-1β [IL-1β] | increases | decreases | decreases | increased substantially | decreased | quick yet increased further over time | increases | 7 days | ≤ 1 days | – | – | – | – | – | – | –
transforming growth factor-β3 [TGF-β3] | – | – | – | – | – | – | – | – | – | dense, strong staining | positive staining | 21.16±7.15 μg/construct | higher in the control group | significantly higher | 77% | promoted cell proliferation
